Data from US9452225B2, “GLP-1 prodrugs” (Novo Nordisk A/S, priority 2012, dated 2016).
Where two headings read alike, the source gives them in different places. Numbered stars: 1 amine (or outer) side, 2 acyl side, 3 side chain; on linkers, the order of the positions; unused ones are H or OH. Square brackets hold non-standard residues; d marks the D form. Side chains are listed from the residue outwards. Peptide text beside a SMILES is read from it. * marks the point of attachment. Decanoyl(10-(4-HOOC-PhO)) = O=C(O)c1ccc(OCCCCCCCCCC(=O)*)cc1; Lac(3-(imidazol-4-yl)) = O=C(O)[C@@H](O)Cc1c[nH]cn1; C18 diacid = O=C(O)CCCCCCCCCCCCCCCCC(=O)*; γGlu = O=C(O)[C@H](CCC(=O)[*:2])N[*:1]; NMeI = CC[C@H](C)[C@H](NC)C(=O)O; AEEA = NCCOCCOCC(=O)O; Aib = CC(C)(N)C(=O)O; Glycolyl = O=C(CO)*

Assays:
[1] = Prodrug half-life in vitro, buffer method; assay type: physicochemical
Procedure: (§1) The purpose of this example is to test the in vitro half-lives (T½) of the GLP-1 prodrugs of the invention, in comparison to conceptually different prodrugs. In what follows two in vitro methods are described, viz. a method conducted in buffer, and a method conducted in plasma.
Buffer: 25 mM Phosphate (Ionic strength: 154 mM, pH 7.4 at 37° C.)
NaH2PO4.2H2O (1.95 g, 12.5 mmol) and NaCl (2.61 g, 44.7 mmol) were dissolved in millipore water (approximately 450 mL) and adjusted to pH=7.44 at approximately 20° C. with concentrated NaOH and 1 M NaOH. Water was added to 500.00 mL.
The compound to be tested was dissolved in buffer to a concentration of 1.0 mg/mL and incubated at 37° C. Samples were taken at adequate intervals and the % parent drug compared to prodrug formed as function of time was evaluated by the UPLC method as referred to in Table 1 by comparing the areas under the curves for the two corresponding peaks. These UPLC methods are described in the general experimental section above (UPLC_A, and UPLC_B).
(§2) The half life of the prodrug (T½) was calculated from the slope of a linear fit to the curve of ln(% prodrug (Y)) as a function of time (t), as follows: Y=÷αt+k Math. 1 T½=ln(2)/α Math. 2 Plasma Method Buffer: 200 mM Phosphate, pH 7.4 at 37° C.
The resulting half-lives are set out in Table 1 below. For comparison, the T½ in buffer of native GLP-1(7-37) (His7 variant of SEQ ID NO: 1) was 13 minutes (0.2 hours).

[2] = Prodrug half-life in vitro, plasma method (minipig heparin plasma); assay type: in vitro ADME; conditions: minipig heparin plasma 800 μL + 200 μL 200 mM phosphate pH 7.4, 37° C.; UPLC_A, or UPLC_B for compounds marked *; read-out: T½ in plasma (converted)
Procedure: as §1, §2
NaH2PO4.2H2O (15.61 g, 100 mmol) was dissolved in milliQ water (approximately 450 mL) and adjusted to pH=7.44 at approximately 20° C. with concentrated NaOH (aq) and 1 M NaOH (aq). Water was added to 500.00 mL.
Serum: Minipig Serum, Heparin-Plasma
Fresh blood was tapped from minipig into 9 mL LH lithium heparin Vacuette tubes from Greiner bio-one (catalogue number 455084). After cooling on ice it was centrifuged (10 min, 4° C., 3000 rpm/1942G) and the supernatant isolated and kept at −18° C. before use.
100 nmol of the compound to be tested was dissolved in 200 μL buffer, added to 800 μL plasma (centrifuged), and incubated at 37° C. Samples (50 μL) were drawn at appropriate intervals into 150 μL absolute EtOH. After a short stirring the sample was centrifuged and the supernatant transferred to the UPLC vial (10 μL injection).
The % parent drug compared to prodrug formed as a function of time was evaluated by UPLC, and the half-life calculated, both in the same way as described above under the Buffer method.

[3] = 25 mM phosphate buffer pH 7.4, 37° C., 1.0 mg/mL, UPLC_A, or UPLC_B for compounds marked *, read-out: T½ in buffer (converted)

half-life at 1 mg/mL ([1]; buffer, pH 7.4) [h] | Compound | half-life at 1 mg/mL [1, 3] [h] | half-life [2] [h]
– | CC[C@H](C)[C@H](NC)C(=O)N[C@H](C(=O)O[C@@H](Cc1c[nH]cn1)C(=O)N[C@@H](C)C(=O)N[C@@H](CCC(=O)O)C(=O)NCC(=O)N[C@H](C(=O)N[C@@H](Cc1ccccc1)C(=O)N[C@H](C(=O)N[C@@H](CO)C(=O)N[C@@H](CC(=O)O)C(=O)N[C@H](C(=O)N[C@@H](CO)C(=O)N[C@@H](CCCCNC(=O)COCCOCCNC(=O)COCCOCCNC(=O)CC[C@H](NC(=O)CCCCCCCCCOc1ccc(C(=O)O)cc1)C(=O)O)C(=O)N[C@@H](Cc1ccc(O)cc1)C(=O)N[C@@H](CC(C)C)C(=O)N[C@@H](CCC(=O)O)C(=O)N[C@@H](CCC(=O)O)C(=O)N[C@@H](CCC(N)=O)C(=O)N[C@@H](C)C(=O)N[C@H](C(=O)N[C@@H](CCCNC(=N)N)C(=O)N[C@@H](CCC(=O)O)C(=O)N[C@@H](Cc1ccccc1)C(=O)N[C@H](C(=O)N[C@@H](C)C(=O)N[C@@H](CCCCNC(=O)COCCOCCNC(=O)COCCOCCNC(=O)CC[C@H](NC(=O)CCCCCCCCCOc1ccc(C(=O)O)cc1)C(=O)O)C(=O)N[C@@H](CC(C)C)C(=O)N[C@H](C(=O)N[C@@H](CCCNC(=N)N)C(=O)NCC(=O)N[C@@H](CCCNC(=N)N)C(=O)NCC(=O)O)C(C)C)[C@@H](C)CC)C(C)C)C(C)C)[C@@H](C)O)[C@@H](C)O)C(C)C [Example 3] (H-[NMeI]V[Lac(3-(imidazol-4-yl))]AEGTFTSDVSK([AEEA-AEEA-γGlu-Decanoyl(10-(4-HOOC-PhO))])YLEEQAVREFIAK([AEEA-AEEA-γGlu-Decanoyl(10-(4-HOOC-PhO))])LVRGRG-OH) | 38.5 | 25.6
45.6 | CC[C@H](C)[C@H](NC)C(=O)N[C@H](C(=O)O[C@@H](Cc1c[nH]cn1)C(=O)NC(C)(C)C(=O)N[C@@H](CCC(=O)O)C(=O)NCC(=O)N[C@H](C(=O)N[C@@H](Cc1ccccc1)C(=O)N[C@H](C(=O)N[C@@H](CO)C(=O)N[C@@H](CC(=O)O)C(=O)N[C@H](C(=O)N[C@@H](CO)C(=O)N[C@@H](CO)C(=O)N[C@@H](Cc1ccc(O)cc1)C(=O)N[C@@H](CC(C)C)C(=O)N[C@@H](CCC(=O)O)C(=O)N[C@@H](CCC(=O)O)C(=O)N[C@@H](CCC(N)=O)C(=O)N[C@@H](C)C(=O)N[C@@H](C)C(=O)N[C@@H](CCCNC(=N)N)C(=O)N[C@@H](CCCCNC(=O)COCCOCCNC(=O)COCCOCCNC(=O)CC[C@H](NC(=O)CCCCCCCCCCCCCCCCC(=O)O)C(=O)O)C(=O)N[C@@H](Cc1ccccc1)C(=O)N[C@H](C(=O)N[C@@H](C)C(=O)N[C@@H](Cc1c[nH]c2ccccc12)C(=O)N[C@@H](CC(C)C)C(=O)N[C@H](C(=O)N[C@@H](CCCNC(=N)N)C(=O)NCC(=O)N[C@@H](CCCNC(=N)N)C(=O)NCC(=O)O)C(C)C)[C@@H](C)CC)C(C)C)[C@@H](C)O)[C@@H](C)O)C(C)C [Example 6] (H-[NMeI]V[Lac(3-(imidazol-4-yl))][Aib]EGTFTSDVSSYLEEQAARK([AEEA-AEEA-γGlu-C18 diacid])FIAWLVRGRG-OH) | – | –
– | CC[C@H](C)[C@H](NC(=O)[C@H](Cc1ccccc1)NC(=O)[C@H](CCC(=O)O)NC(=O)[C@H](CCCNC(=N)N)NC(=O)[C@@H](NC(=O)[C@H](C)NC(=O)[C@H](CCC(N)=O)NC(=O)[C@H](CCC(=O)O)NC(=O)[C@H](CCC(=O)O)NC(=O)[C@H](CC(C)C)NC(=O)[C@H](Cc1ccc(O)cc1)NC(=O)[C@H](CCCCNC(=O)COCCOCCNC(=O)COCCOCCNC(=O)CC[C@H](NC(=O)CCCCCCCCCOc1ccc(C(=O)O)cc1)C(=O)O)NC(=O)[C@H](CO)NC(=O)[C@@H](NC(=O)[C@H](CC(=O)O)NC(=O)[C@H](CO)NC(=O)[C@@H](NC(=O)[C@H](Cc1ccccc1)NC(=O)[C@@H](NC(=O)CNC(=O)[C@H](CCC(=O)O)NC(=O)[C@H](C)NC(=O)[C@H](Cc1c[nH]cn1)OC(=O)[C@@H](NC(=O)CN)C(C)C)[C@@H](C)O)[C@@H](C)O)C(C)C)C(C)C)C(=O)N[C@@H](C)C(=O)N[C@@H](CCCCNC(=O)COCCOCCNC(=O)COCCOCCNC(=O)CC[C@H](NC(=O)CCCCCCCCCOc1ccc(C(=O)O)cc1)C(=O)O)C(=O)N[C@@H](CC(C)C)C(=O)N[C@H](C(=O)N[C@@H](CCCNC(=N)N)C(=O)NCC(=O)N[C@@H](CCCNC(=N)N)C(=O)NCC(=O)O)C(C)C [Example 1a] (H-GV[Lac(3-(imidazol-4-yl))]AEGTFTSDVSK([AEEA-AEEA-γGlu-Decanoyl(10-(4-HOOC-PhO))])YLEEQAVREFIAK([AEEA-AEEA-γGlu-Decanoyl(10-(4-HOOC-PhO))])LVRGRG-OH) | 1.5 | –
– | CC[C@H](C)[C@H](NC(=O)[C@H](Cc1ccccc1)NC(=O)[C@H](CCC(=O)O)NC(=O)[C@H](CCCNC(=N)N)NC(=O)[C@@H](NC(=O)[C@H](C)NC(=O)[C@H](CCC(N)=O)NC(=O)[C@H](CCC(=O)O)NC(=O)[C@H](CCC(=O)O)NC(=O)[C@H](CC(C)C)NC(=O)[C@H](Cc1ccc(O)cc1)NC(=O)[C@H](CCCCNC(=O)COCCOCCNC(=O)COCCOCCNC(=O)CC[C@H](NC(=O)CCCCCCCCCOc1ccc(C(=O)O)cc1)C(=O)O)NC(=O)[C@H](CO)NC(=O)[C@@H](NC(=O)[C@H](CC(=O)O)NC(=O)[C@H](CO)NC(=O)[C@@H](NC(=O)[C@H](Cc1ccccc1)NC(=O)[C@@H](NC(=O)CNC(=O)[C@H](CCC(=O)O)NC(=O)[C@H](C)NC(=O)[C@H](Cc1c[nH]cn1)OC(=O)[C@@H](NC(=O)CO)C(C)C)[C@@H](C)O)[C@@H](C)O)C(C)C)C(C)C)C(=O)N[C@@H](C)C(=O)N[C@@H](CCCCNC(=O)COCCOCCNC(=O)COCCOCCNC(=O)CC[C@H](NC(=O)CCCCCCCCCOc1ccc(C(=O)O)cc1)C(=O)O)C(=O)N[C@@H](CC(C)C)C(=O)N[C@H](C(=O)N[C@@H](CCCNC(=N)N)C(=O)NCC(=O)N[C@@H](CCCNC(=N)N)C(=O)NCC(=O)O)C(C)C [Example 1b] (Glycolyl-V[Lac(3-(imidazol-4-yl))]AEGTFTSDVSK([AEEA-AEEA-γGlu-Decanoyl(10-(4-HOOC-PhO))])YLEEQAVREFIAK([AEEA-AEEA-γGlu-Decanoyl(10-(4-HOOC-PhO))])LVRGRG-OH) | 0.65 | –
11 | CC[C@H](C)[C@H](N)C(=O)N[C@H](C(=O)O[C@@H](Cc1c[nH]cn1)C(=O)NC(C)(C)C(=O)N[C@@H](CCC(=O)O)C(=O)NCC(=O)N[C@H](C(=O)N[C@@H](Cc1ccccc1)C(=O)N[C@H](C(=O)N[C@@H](CO)C(=O)N[C@@H](CC(=O)O)C(=O)N[C@H](C(=O)N[C@@H](CO)C(=O)N[C@@H](CO)C(=O)N[C@@H](Cc1ccc(O)cc1)C(=O)N[C@@H](CC(C)C)C(=O)N[C@@H](CCC(=O)O)C(=O)N[C@@H](CCC(=O)O)C(=O)N[C@@H](CCC(N)=O)C(=O)N[C@@H](C)C(=O)N[C@@H](C)C(=O)N[C@@H](CCCNC(=N)N)C(=O)N[C@@H](CCCCNC(=O)COCCOCCNC(=O)COCCOCCNC(=O)CC[C@H](NC(=O)CCCCCCCCCCCCCCCCC(=O)O)C(=O)O)C(=O)N[C@@H](Cc1ccccc1)C(=O)N[C@H](C(=O)N[C@@H](C)C(=O)N[C@@H](Cc1c[nH]c2ccccc12)C(=O)N[C@@H](CC(C)C)C(=O)N[C@H](C(=O)N[C@@H](CCCNC(=N)N)C(=O)NCC(=O)N[C@@H](CCCNC(=N)N)C(=O)NCC(=O)O)C(C)C)[C@@H](C)CC)C(C)C)[C@@H](C)O)[C@@H](C)O)C(C)C [Example 6a] (H-IV[Lac(3-(imidazol-4-yl))][Aib]EGTFTSDVSSYLEEQAARK([AEEA-AEEA-γGlu-C18 diacid])FIAWLVRGRG-OH) | – | –
